Test results reported in patent publication US7138238B2, “Ligand sensor devices and uses thereof” (priority 2001, dated 2006).
Like-named read-outs stand apart in the source and are kept apart here. Primed or numbered codes have the meaning given here. Ends that are not written are not given here. Biotin′ = not defined here

Legend:
murine kidney homogenate = assay: Ligand sensor device selectivity assay, murine kidney homogenate; type: binding, mouse
Method: (§1) Identification of a peptide of interest. Mice were euthanized with carbon dioxide gas and cats were euthanized with an overdose of pentobarbital administered intravenously (the use of animals was approved by the Auburn University Animal Care and Use Committee). After death, animals were perfused with ice-cold Phosphate Buffered Saline (PBS). Samples of mouse and cat skeletal muscle, mouse kidney, liver and brain were harvested. Tissue aliquots (200 mg) were homogenized in 4 ml PBS using a manual homogenizer. Immediately after homogenization samples were microcentrifuged for 10 min at 3,000 rpm, and the supernatants containing tissue vesicles were separated from the pellets. […] Vesicle concentration and integrity were examined by dark-field microscopy (Vodyanoy et al. (1994) Langmuir 10: 1354–1357). Dilutions of tissue samples were prepared in PBS as follows: 1:5, 1:25, 1:125, and 1:625. To perform the blocking experiment, free ASSLNIA peptide (1 mg/ml) synthesized by Research Genetics, Inc. (Huntsville, Ala., USA) was added to the murine skeletal muscle tissue homogenate (50 mg/ml) and incubated at room temperature for 1 hour with agitation. Protein concentration in tissue samples was determined using Bio-Rad® Protein Assay Kit (Bio-Rad Laboratories, Hercules, Calif., USA).
(§2) Coupling the peptide of interest to the sensor. The sensor, prepared as described above by the addition of a Langmuir-Blodgett film of biotinylated lipid, was then coupled to the peptide of interest by molecular assembly with streptavidin. Streptavidin was diluted to a final concentration of 0.01 mg/ml in the subphase solution and exposed to the LB film for 2 hours; the film was then rinsed with distilled water and dried for 2 min in ambient air. […] If necessary, this preparation step could be followed by a blocking step with a biotin solution. In this manner, the peptide of interest was coupled with the phospholipid via molecular assembly with streptavidin (see FIG. 1), thereby coupling the peptide of interest to the sensor to create the ligand sensor device (LSD). Each LSD was placed in an individual Petri dish and stored no longer than 24 hours at 4° C. until affinity assays were performed.
Quantifying the signal output from the ligand sensor device (LSD). Measurements were carried out using a PM-740 Maxtek plating monitor with a frequency resolution of 0.5 Hz at 5 MHz. The voltage output from the Maxtek device is directly related to the resonance frequency of the quartz crystal sensor. Changes in the resonance frequency of the quartz crystal sensor were used to monitor the binding of homogenate vesicles to the sensor surface.
To evaluate the affinity of a ligand, the LSD was positioned in the probe arm of the instrument just before delivery of samples. Immediately after recording was started, 1000 μl phosphate buffered saline (PBS) was delivered with a pipette to the dry sensor surface and voltage was recorded for 4–8 minutes. The PBS was then removed carefully with a plastic pipette tip and a new recording was initiated. Tissue homogenates of different dilutions were added sequentially to the sensor and the same measuring procedure was followed after each addition. Each experiment was replicated 2–4 times, and the temperature of all samples was 25° C. Voltage output of the LSD was recorded and records were analyzed offline.
Binding selectivity of the Ligand Sensor Device.

[1] = tested on: feline skeletal muscle homogenate; assay: Ligand sensor device binding assay, feline muscle homogenate; parameters: species or system cat
Method: as §1
A 7-mer phage display peptide library (New England Biolabs, Inc., Beverly, Mass., USA) was screened as described in Samoylova and Smith (1999) Muscle & Nerve 22: 460–466.
Preparation of the sensor. AT-cut planar quartz crystal sensors with a 5 MHz nominal oscillating frequency were purchased from Maxtek, Inc. Circular gold electrodes were deposited on both sides of the crystal sensor for the electrical connection to the oscillatory circuit. The sensor was prepared to be coupled to the peptide by the addition of a Langmuir-Blodgett film of biotinylated lipid. Lipid monolayer depositions were carried out using a Langmuir-Blodgett (LB) film balance KSV 2200 LB (KSV-Chemicals, Finland). This fully computerized system includes a Wilhelmy-type surface balance (range 0–100 mN/m; sensitivity 0.05 mN/m), a Teflon trough (45×15 cm^2), a variable speed motor-driven Teflon barrier (0–200 mm/min), and a laminar flow hood. The trough was mounted on a 200 kg marble table. Vibration control was provided by interposing rubber shock absorbers and by mounting the laminar flow hood on a separate bench. Surface pressure was monitored by use of a sandblasted platinum plate of 4-cm perimeter. The temperature of the aqueous subphase (20° C. ±0.1° C.) was controlled by water circulation through a quartz tube coil on the bottom of the trough. The temperature of the aqueous subphase was measured by a thermistor located just below the air/liquid interface. […]

murine liver homogenate = assay: Ligand sensor device selectivity assay, murine liver homogenate; type: binding, mouse
Method: as §1, §2
(§3) Quantifying the signal output from the ligand sensor device (LSD). Measurements were carried out using a PM-740 Maxtek plating monitor with a frequency resolution of 0.5 Hz at 5 MHz. […]
(§4) To evaluate the affinity of a ligand, the LSD was positioned in the probe arm of the instrument just before delivery of samples. Immediately after recording was started, 1000 μl phosphate buffered saline (PBS) was delivered with a pipette to the dry sensor surface and voltage was recorded for 4–8 minutes. […] Voltage output of the LSD was recorded and records were analyzed offline. […]

murine brain homogenate = assay: Ligand sensor device selectivity assay, murine brain homogenate; type: binding, mouse
Method: as §1, §2, §3, §4

[2] = biological target: murine skeletal muscle homogenates; assay: Ligand sensor device (acoustic wave sensor) binding assay, murine muscle homogenate; parameters: species or system mouse; details: for Kd: read-out: apparent dissociation constant Kd
Method: as §1, with “USA). […]” for “USA).”
Preparation of the sensor. AT-cut planar quartz crystal sensors with a 5 MHz nominal oscillating frequency were purchased from Maxtek, Inc. Circular gold electrodes were deposited on both sides of the crystal sensor for the electrical connection to the oscillatory circuit. The sensor was prepared to be coupled to the peptide by the addition of a Langmuir-Blodgett film of biotinylated lipid. Lipid monolayer depositions were carried out using a Langmuir-Blodgett (LB) film balance KSV 2200 LB (KSV-Chemicals, Finland). This fully computerized system includes a Wilhelmy-type surface balance (range 0–100 mN/m; sensitivity 0.05 mN/m), a Teflon trough (45×15 cm^2), a variable speed motor-driven Teflon barrier (0–200 mm/min), and a laminar flow hood. The trough was mounted on a 200 kg marble table. Vibration control was provided by interposing rubber shock absorbers and by mounting the laminar flow hood on a separate bench. Surface pressure was monitored by use of a sandblasted platinum plate of 4-cm perimeter. The temperature of the aqueous subphase (20° C. ±0.1° C.) was controlled by water circulation through a quartz tube coil on the bottom of the trough. The temperature of the aqueous subphase was measured by a thermistor located just below the air/liquid interface.
Monolayers were transferred onto the gold surface of an acoustic wave sensor using the Langmuir-Blodgett technique. Lipid solutions were spread on the aqueous subphase as hexane solutions (1 mg/ml) containing 2% ethanol (Ito et al. (1989) Thin Solid Films 180: 1–13). The lipid solutions contained phospholipid (N (biotinoyl)-1,2-dihexadecanoyl-SN-glycero-3-phosphoethanolamine). The aqueous subphase was a solution containing 55 mM KCl, 4 mM NaCl, 0.1 mM CaCl2, 1 mM MgCl2 and 2 mM 3-(N-morpholino)-propanesulfonic acid (MOPS) made with deionized double distilled water (pH 7.4). After spreading, the monolayer was allowed to equilibrate and stabilize for 10 min at 19° C.

[3] = Table 2, feline muscle homogenate
[4] = Table 1, blocked muscle: homogenate (50 mg/ml) incubated with free peptide (1 mg/ml) 1 hour at room temperature
[5] = Table 2, murine muscle homogenate

Substance: 7-mer peptide selected in vivo for murine myofibers by phage display; coupled to the sensor as ASSLNIAGGGSK-Biotin (SEQ ID NO:3) (ASSLNIAGGGSK-{Biotin′}; also: coupled to the sensor)
- kidney homogenate needed to induce same response as 0.01 mg/ml muscle homogenate (murine kidney homogenate): more than 100 mg/ml
- sensitivity (S), slope of dose response (murine kidney homogenate; Table 3, murine kidney): 41.8 ± 7.0 V/decade
- selective preference for ligand(s) in muscle over kidney homogenates, factor (murine kidney homogenate; at 0.01 mg/ml muscle homogenate): more than 10,000
- sensor response (murine kidney homogenate; murine kidney preparation): insignificant responses
- Selectivity coefficient, K (murine kidney homogenate; murine kidney, K = Stissue/Smuscle): (3.1 ± 1.0) × 10^−1 relative units
- Mmax [1, 3]: 32.8 ± 2.0 ng/cm^2
- apparent dissociation constant Kd [1, 3]: 370 ± 50 µg/mL
- Hill coefficient ([1]; Table 2, feline muscle homogenate, equation 2): 0.93 ± 0.04
- sensor response ([1]; feline muscle homogenates, compared to murine muscle): appreciable, but lower responses
- sensitivity (S), slope of dose response (murine liver homogenate; Table 3, murine liver): 67.3 ± 6.0 V/decade
- sensor response (murine liver homogenate; murine liver preparation): insignificant responses
- Selectivity coefficient, K (murine liver homogenate; murine liver, K = Stissue/Smuscle): (5.0 ± 1.5) × 10^−1 relative units
- Activity ratio, R (murine liver homogenate; murine liver, R = ΔCmuscle/ΔCtissue at protein concentration 0.01 mg/ml): (1.1 ± 0.4) × 10^−3 relative units
- sensitivity (S), slope of dose response (murine brain homogenate; Table 3, murine brain): 62.5 ± 16 V/decade
- sensor response (murine brain homogenate; murine brain preparation): insignificant responses
- Selectivity coefficient, K (murine brain homogenate; murine brain, K = Stissue/Smuscle): (4.6 ± 1.4) × 10^−1 relative units
- Activity ratio, R (murine brain homogenate; murine brain, R = ΔCmuscle/ΔCtissue at protein concentration 0.01 mg/ml): (3.4 ± 1.1) × 10^−3 relative units
- apparent dissociation constant Kd [2, 4]: 320 ± 50 µg/mL
- apparent maximal surface concentration of protein Mmax [2, 4]: 34.4 ± 3.0 ng/cm^2
- apparent dissociation constant Kd ([2]; Table 1, murine muscle homogenate, calculated from Hill plots): 280 µg/mL
- apparent maximal surface concentration of protein Mmax ([2]; Table 1, murine muscle homogenate, estimated from increase of sensor voltage): 54.0 ± 4.0 ng/cm^2
- Mmax [2, 5]: 50.5 ± 3.0 ng/cm^2
- apparent dissociation constant Kd [2, 5]: 320 ± 50 µg/mL
- Hill coefficient ([2]; Table 2, murine muscle homogenate, equation 2): 0.92 ± 0.04
- sensitivity (S), slope of dose response ([2]; Table 3, murine muscle): 134 ± 20.0 V/decade
- apparent dissociation constant, level ([2]; assuming only a fraction of molecules on vesicle surface bind the peptide): subnanomolar level
- Kd ([2]; corrected for target molecules being ~0.5% of vesicle mass): 5 to 10 nM
- Selectivity coefficient, K ([2]; murine muscle (reference), K = Stissue/Smuscle): 1.0 relative units
- Activity ratio, R ([2]; murine muscle (reference), protein concentration 0.01 mg/ml): 1.0 relative units
- time to approach steady-state signal output τ2 ([2]; murine muscle homogenate, each concentration, FIG. 2): 70 ± 20 s
- initial delay in signal output response τ1 ([2]; murine muscle homogenate, independent of concentration, FIG. 2): 8 ± 1 s
- sensor response ([2]; murine muscle homogenates): strong response
- protein concentration at which signal was saturated ([2]; murine muscle homogenates, FIG. 3): about 5.0 mg/ml
- sensor signal after blocking ([2]; preincubation of muscle homogenates with free peptide): significantly reduced signal
- Kd ([2]; speculating target molecule of about 75–150 kD): 1000 to 2000 nM
